Laboratory results published in US4670562A, “Dihydropyrrolo[1,2-b]isoquinolinedione oximes” (priority 1986, dated 1987).
pIC50: −log10 of the molar value. Where two headings read alike, the source gives them in different places.

Target: acetylcholinesterase (Homo sapiens, UniProt P22303)
Test: Cholinesterase Inhibition Assay (photometric method of Ellman et al.)
Type: biochemical
[1] = photometric method of Ellman et al., read-out: Cholinesterase Inhibition IC50

Chain of acetylcholinesterase (P22303 32-614): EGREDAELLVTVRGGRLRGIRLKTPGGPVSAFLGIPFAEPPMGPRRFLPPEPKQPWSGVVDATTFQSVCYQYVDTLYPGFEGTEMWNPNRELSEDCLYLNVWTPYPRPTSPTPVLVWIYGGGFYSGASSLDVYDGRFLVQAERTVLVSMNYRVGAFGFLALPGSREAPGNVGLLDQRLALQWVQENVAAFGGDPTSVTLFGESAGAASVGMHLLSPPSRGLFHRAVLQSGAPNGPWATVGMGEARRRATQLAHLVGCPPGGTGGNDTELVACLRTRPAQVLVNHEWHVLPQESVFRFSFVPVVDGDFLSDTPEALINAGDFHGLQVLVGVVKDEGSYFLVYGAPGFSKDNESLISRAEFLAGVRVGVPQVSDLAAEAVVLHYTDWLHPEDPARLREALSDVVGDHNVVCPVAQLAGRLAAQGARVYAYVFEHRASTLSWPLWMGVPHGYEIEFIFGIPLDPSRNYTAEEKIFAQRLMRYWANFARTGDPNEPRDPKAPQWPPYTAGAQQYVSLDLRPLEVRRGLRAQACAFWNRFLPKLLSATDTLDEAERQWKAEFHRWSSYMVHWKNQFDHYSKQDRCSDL

| Structure (SMILES) | pIC50 [1] | pIC50 |
| --- | --- | --- |
| c1ccc2c3c(ncc2c1)CCCN3 [1,2,3,4-Tetrahydrobenzo[c]-1,5-naphthyridine] | 4.21 |  |
| O=C(Cc1ccccc1)N1CCCc2ncc3ccccc3c21 [1-(Phenylacetyl)-1,2,3,4-tetrahydrobenzo[c]-1,5-naphthyridine] | 3.49 |  |
| CN1CCN(C2=Nc3c(ncc4ccccc34)CC2)CC1 [3,4-Dihydro-2-(4-methyl-1-piperazinyl)benzo[c]-1,5-naphthyridine hemihydrate] |  | 3.08 |
